Test results reported in US8198215B2, “Methods for protecting seeds” (Sygenta Crop Protection LLC, priority 2005, dated 2012).

Assays:
Format in all cases: in vivo
[1] = tested on: Ustilago nuda; experiment: Example B-6: comparison test with prior art compound C, activity against Ustilago nuda on barley; conditions: 10 g active ingredient per 100 kg seed; for % Control / % infected heads: barley seed treatment; for % Control: relative to untreated; for % infected heads: untreated 13
Description: (§1) After application of the active ingredient formulated as a flowable concentrate for seed treatment onto U. nuda-infected seeds of winterbarley the seeds are sown in trays filled with field soil. The trays are transferred to a growth room and kept there for 2 days at 20° C. and then for 2 weeks at 2° C. After this period the trial is transferred to a greenhouse where a temperature of 15° C. and a 14 hr light period is provided until flowering. The following assessments are made: number of infected heads. Each number is determined for 200 seeds per treatment (2 replicates a 100 seeds). The activity against Ustilago nuda on barley of the racemic compound of formula Ia according to the invention was compared with racemic compound C (trans/cis-ratio: 10:1), which is described as compound no. 2.40 on pages 6 and 7, table 2, of WO 03/074491. The method used to compare the activity is described under example B-4 above.

[2] = tested on: Gäumannomyces graminis; experiment: Example B-1: activity against Gäumannomyces graminis on wheat, seed treatment; conditions: winterwheat seed treatment; for % root browning: inoculated field soil, 5 weeks at 17° C., untreated 50; for Control: relative to untreated
Description: After application of the active ingredient formulated as a flowable concentrate for seed treatment onto seeds of winterwheat the seeds are sown in trays filled with field soil. The field soil has been inoculated artificially before sowing with Gäumannomyces graminis by thoroughly mixing mycelium and soil. The trial is kept in a growth room for 5 weeks at 17° C. and a 14 hr light period. The following assessments are made: % root browning. Each number is determined for 30 seeds per treatment (3 replicates a 10 seeds).

[3] = tested on: Microdochium nivale; experiment: Example B-2: activity against Microdochium nivale on wheat, seed treatment; conditions: M. nivale-infected winterwheat seeds, 10 g/100 kg seed
Description: After application of the active ingredient formulated as a flowable concentrate for seed treatment onto M. nivale-infected seeds of winterwheat the seeds are sown in trays filled with planting soil. The trial is kept for 4 weeks in a growth room at 4° C. and darkness. Then the temperature is increased to 15° C. and a 12 hr light period is provided. After development of the primary leaf plants are kept at 10° C. and high humidity until the trial is finished. The following assessments are made: number of infected plants. Each number is determined for 100 seeds per treatment (2 replicates a 50 seeds).

[4] = tested on: Pyrenophora graminea; experiment: Example B-3: activity against Pyrenophora graminea on barley, seed treatment; conditions: P. graminea-infected winterbarley seeds, 10 g/100 kg seed
Description: After application of the active ingredient formulated as a flowable concentrate for seed treatment onto P. graminea-infected seeds of winterbarley the seeds are sown in trays filled with field soil. The trays are kept in a growth room for 3 weeks at 4° C. After this period the trial is transferred to a greenhouse where a temperature of 12° C. and a 14 hr light period is provided. The following assessments are made: number of infected plants. Each number is determined for 200 seeds per treatment (2 replicates a 100 seeds).

[5] = tested on: Ustilago nuda; experiment: Example B-4: activity against Ustilago nuda on barley, seed treatment; conditions: U. nuda-infected winterbarley seeds; for % Control: relative to untreated; for % infected heads: untreated 23.1
Description: After application of the active ingredient formulated as a flowable concentrate for seed treatment onto U. nuda-infected seeds of winterbarley the seeds are sown in trays filled with field soil. The trays are transferred to a growth room and kept there for 2 days at 20° C. and then for 2 weeks at 2° C. After this period the trial is transferred to a greenhouse where a temperature of 15° C. and a 14 hr light period is provided until flowering. The following assessments are made: number of infected heads. Each number is determined for 200 seeds per treatment (2 replicates a 100 seeds).

[6] = tested on: Ustilago nuda; experiment: Example B-5: comparison test with prior art compound B, activity against Ustilago nuda on barley; conditions: 10 g active ingredient per 100 kg seed; for % Control / % infected heads: barley seed treatment; for % Control: relative to untreated; for % infected heads: untreated 13
Description: as §1, with “B,” for “C (trans/cis-ratio: 10:1),”, “2.69” for “2.40”, “pages” for “pages 6 and”, “2, and page 16, table 7,” for “2,”

Row | SMILES | % Control [1] [%] | % infected heads [1] [%] | % root browning ([2]; 10 g/100 kg seed) [%] | Control ([2]; 10 g/100 kg seed) | % root browning ([2]; 33 g/100 kg seed) [%] | Control ([2]; 33 g/100 kg seed) | Control ([3]; relative to untreated) | % infected plants ([3]; untreated 38) [%] | Control ([4]; relative to untreated) | % infected plants ([4]; untreated 54) [%] | % Control ([5]; 2.5 g/100 kg seed) [%] | % infected heads ([5]; 2.5 g/100 kg seed) [%] | % Control ([5]; 5 g/100 kg seed) [%] | % infected heads ([5]; 5 g/100 kg seed) [%] | fungicidal action against Ustilago nuda on barley compared with racemic compound B [6] | % Control [6] [%] | % infected heads [6] [%] | fungicidal action against Ustilago nuda on barley compared with racemic compound C [1]
1 | Cn1cc(C(=O)Nc2ccccc2C2CC2C2CCCC2)c(C(F)F)n1 (racemic) [Racemic compound C, reference compound] | 11 | 11.6 |  |  |  |  |  |  |  |  |  |  |  |  |  |  |  | 
2 | Cn1cc(C(=O)Nc2ccccc2[C@@H]2C[C@H]2C2CC2)c(C(F)F)n1 (racemic) [Racemic compound of formula Ia] | 100 | 0 | 28 | 44 | 20 | 60 | 86.8 | 5 | 98.1 | 1 | 100 | 0 | 100 | 0 | substantially better fungicidal action | 100 | 0 | substantially better fungicidal action
3 | Cn1cc(C(=O)Nc2ccccc2[C@@H]2C[C@H]2c2ccc(Cl)cc2)c(C(F)F)n1 (racemic) [Racemic compound B, reference compound] |  |  |  |  |  |  |  |  |  |  |  |  |  |  |  | 9 | 11.9 | 
